Reference: BindingDB's records for patent US20250313563 (The Broad Institute, 2025)
Where “and” joins values, the source holds several entries; their conditions need not be identical. Equal entries are not always repeated.

How the values were obtained:
[1] = molecular target: Glycogen synthase kinase-3 alpha (Homo sapiens, UniProt P49840); test: TR-FRET Assay
Summary of the method: (§1)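 Compound was preincubated 30 min in assay buffer before the kinase reaction, which was quenched with EDTA. Phosphorylation was detected by TR-FRET after adding a solution of 40 nM streptavidin-d2 and 2 nM Tb-labelled anti-pSer641 antibody.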

[2] = molecular target: Glycogen synthase kinase-3 beta (Homo sapiens, UniProt P49841); test: TR-FRET Assay
Summary of the method: as §1

Glycogen synthase kinase-3 alpha, sequence (P49840 whole entry): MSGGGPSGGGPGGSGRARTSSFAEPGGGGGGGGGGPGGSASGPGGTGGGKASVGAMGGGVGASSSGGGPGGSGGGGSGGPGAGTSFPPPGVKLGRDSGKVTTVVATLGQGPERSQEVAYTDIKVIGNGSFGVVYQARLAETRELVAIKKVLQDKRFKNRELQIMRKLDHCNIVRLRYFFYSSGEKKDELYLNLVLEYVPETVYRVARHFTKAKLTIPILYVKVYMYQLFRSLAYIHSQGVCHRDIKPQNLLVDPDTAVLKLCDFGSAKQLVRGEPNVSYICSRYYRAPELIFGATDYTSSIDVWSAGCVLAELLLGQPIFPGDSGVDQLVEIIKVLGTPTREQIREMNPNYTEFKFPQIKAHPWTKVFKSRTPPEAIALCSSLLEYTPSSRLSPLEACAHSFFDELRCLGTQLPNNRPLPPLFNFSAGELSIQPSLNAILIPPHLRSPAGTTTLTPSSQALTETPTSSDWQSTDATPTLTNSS
Glycogen synthase kinase-3 beta, sequence (P49841 whole entry): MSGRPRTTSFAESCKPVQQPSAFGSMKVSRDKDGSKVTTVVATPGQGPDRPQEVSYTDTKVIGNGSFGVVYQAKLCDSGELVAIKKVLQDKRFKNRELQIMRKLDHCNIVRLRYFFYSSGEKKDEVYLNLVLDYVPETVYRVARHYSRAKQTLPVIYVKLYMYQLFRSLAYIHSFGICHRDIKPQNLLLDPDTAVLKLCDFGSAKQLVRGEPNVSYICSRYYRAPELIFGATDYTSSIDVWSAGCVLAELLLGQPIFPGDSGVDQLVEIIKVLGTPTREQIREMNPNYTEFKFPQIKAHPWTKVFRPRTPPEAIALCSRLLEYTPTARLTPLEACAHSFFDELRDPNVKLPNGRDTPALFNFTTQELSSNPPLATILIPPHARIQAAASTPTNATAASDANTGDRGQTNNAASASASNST

| IC50 [1] | IC50 [2] | SMILES |
| --- | --- | --- |
| < 100 nM | 100 to 1000 nM | CC1(C)CC(=O)C2=C(C1)NC1=C(CN=N1)C21CCCc2ccccc21 (stereo not drawn) [US20250313563, Compound 913219] |
| < 100 nM | 100 to 1000 nM | CC[C@]1(c2cccc(-c3cc(C)nc(C)c3)c2)C2=CN=NC2NC2=C1C(=O)CC(C)(C)C2 (stereo partly drawn) [US20250313563, Compound 913222] |
| > 5000 nM | > 5000 nM | CC[C@@]1(c2cccc(-c3cc(C)nc(C)c3)c2)C2=CN=NC2NC2=C1C(=O)CC(C)(C)C2 (stereo partly drawn) [US20250313563, Compound 913223] |
| 100 to 1000 nM | 1000 to 5000 nM | CCC1(c2cccc(Br)c2)C2=CN=NC2NC2=C1C(=O)NC(C)C2 (stereo not drawn) [US20250313563, Compound 913225] |
| < 100 nM | < 100 nM | CC1(C)CC(=O)C2=C(C1)NC1=C(CN=N1)C21CCN(S(=O)(=O)c2ccc3c(c2)CCO3)CC1 [US20250313563, Compound 913251] |
| 100 to 1000 nM | 100 to 1000 nM | CCC1(c2cccc(N(C)c3ccc(OC)nc3)c2)C2=CN=NC2NC2=C1C(=O)CC(C)(C)C2 (stereo not drawn) [US20250313563, Compound 913252] |
| < 100 nM | < 100 nM | CCC1(c2cccc(NS(C)(=O)=O)c2)C2=CN=NC2NC2=C1C(=O)CC(C)(C)C2 (stereo not drawn) [US20250313563, Compound 913253] |
| < 100 nM | < 100 nM | CCC1(c2cccc(N(C)c3ccnc(C(F)(F)F)c3)c2)C2=CN=NC2NC2=C1C(=O)CC(C)(C)C2 (stereo not drawn) [US20250313563, Compound 913254] |
| < 100 nM | 100 to 1000 nM | CCC1(c2cccc(N(C)c3cccc(C)n3)c2)C2=CN=NC2NC2=C1C(=O)CC(C)(C)C2 (stereo not drawn) [US20250313563, Compound 913255] |
| 1000 to 5000 nM | > 5000 nM | CCC1(c2cccc(N(C)c3cc(C)nc(C)c3)c2)C2=CN=NC2NC2=C1C(=O)CC(C)(C)C2 (stereo not drawn) [US20250313563, Compound 913256] |
| < 100 nM | < 100 nM | CCC1(c2cccc(S(=O)(=O)CC3CC3)c2)C2=CN=NC2NC2=C1C(=O)CC(C)(C)C2 (stereo not drawn) [US20250313563, Compound 913257] |
| < 100 nM | < 100 nM | CCC1(c2cccc(S(=O)(=O)Cc3ccccc3)c2)C2=CN=NC2NC2=C1C(=O)CC(C)(C)C2 (stereo not drawn) [US20250313563, Compound 913258] |
| < 100 nM | < 100 nM | CC1(C)CC(=O)C2=C(C1)NC1=C(CN=N1)C21CN(S(=O)(=O)C2CC2)C1 [US20250313563, Compound 913259] |
| < 100 nM | < 100 nM | Cn1ccc(S(=O)(=O)N2CC3(C2)C2=C(N=NC2)NC2=C3C(=O)CC(C)(C)C2)n1 [US20250313563, Compound 913260] |
| < 100 nM | < 100 nM | COc1ccccc1S(=O)(=O)N1CC2(C1)C1=C(N=NC1)NC1=C2C(=O)CC(C)(C)C1 [US20250313563, Compound 913261] |
| < 100 nM | < 100 nM | CC1(C)CC(=O)C2=C(C1)NC1=C(CN=N1)C21CN(S(=O)(=O)c2ccccn2)C1 [US20250313563, Compound 913262] |
| 100 to 1000 nM | 100 to 1000 nM | CC1(C)CC(=O)C2=C(C1)NC1=C(CN=N1)C21CN(S(=O)(=O)c2ccccc2F)C1 [US20250313563, Compound 913263] |
| < 100 nM | < 100 nM | CN1CC2(C1)C1=C(N=NC1)NC1=C2C(=O)CC(C)(C)C1 [US20250313563, Compound 913264] |
| > 5000 nM | > 5000 nM | CC1(C)CC(=O)C2=C(C1)NC1=C(CN=N1)C21CN(S(=O)(=O)c2cccnc2)C1 [US20250313563, Compound 913265] |
| < 100 nM | < 100 nM | CCC1(c2cccc(N(c3cccnc3)C3CC3)c2)C2=CN=NC2NC2=C1C(=O)CC(C)(C)C2 (stereo not drawn) [US20250313563, Compound 913274] |
| < 100 nM | < 100 nM | CC[C@@]1(c2cccc(N(C)C(=O)c3cnn(C)c3)c2)C2=CN=NC2NC2=C1C(=O)CC(C)(C)C2 (stereo partly drawn) [US20250313563, Compound 913310] |
| < 100 nM | 100 to 1000 nM | CCC1(c2cccc(Nc3ncccn3)c2)C2=CN=NC2NC2=C1C(=O)CC(C)(C)C2 (stereo not drawn) [US20250313563, Compound 913334] |
| < 100 nM | 100 to 1000 nM | CCC1(c2cccc(-c3cc(C)ncc3C)c2)C2=CN=NC2NC2=C1C(=O)CC(C)(C)C2 (stereo not drawn) [US20250313563, Compound 913346] |
| < 100 nM | < 100 nM | CCC1(c2cccc(-c3ccnc(C)c3C)c2)C2=CN=NC2NC2=C1C(=O)CC(C)(C)C2 (stereo not drawn) [US20250313563, Compound 913347] |
| < 100 nM | 100 to 1000 nM | CCC1(c2cccc(-c3ccnc(C(F)(F)F)c3)c2)C2=CN=NC2NC2=C1C(=O)CC(C)(C)C2 (stereo not drawn) [US20250313563, Compound 913348] |
| 100 to 1000 nM and < 100 nM | < 100 nM and 100 to 1000 nM | CCC1(c2cccc(-c3ccnc(C(F)(F)F)c3)c2)C2=CN=NC2NC2=C1C(=O)CC(C)(C)C2 (stereo not drawn) [US20250313563, Compound 913350] |
| < 100 nM | < 100 nM | CCC1(c2cccc(-c3ccncc3C)c2)C2=CN=NC2NC2=C1C(=O)CC(C)(C)C2 (stereo not drawn) [US20250313563, Compound 913351] |

| IC50 [1] | IC50 [2] | SMILES |
| --- | --- | --- |
| < 100 nM | < 100 nM | CCC1(c2cccc(-c3ccnc(O)c3)c2)C2=CN=NC2NC2=C1C(=O)CC(C)(C)C2 (stereo not drawn) [US20250313563, Compound 913352] |
| > 5000 nM | > 5000 nM | CCC1(c2cccc(C(F)(F)F)c2)C2=C(N=NC2)NC2=C1C(=O)NCCC2 (stereo not drawn) [US20250313563, Compound 913355] |
| < 100 nM | < 100 nM | CC1(C)CC(=O)C2=C(C1)NC1=C(CN=N1)C21CCC(S(C)(=O)=O)CC1 (stereo not drawn) [US20250313563, Compound 913356] |
| 100 to 1000 nM | 1000 to 5000 nM | CCC1(c2cccc(-c3ccnc(C)c3)c2)C2=CN=NC2NC2=C1C(=O)NC(C)C2 (stereo not drawn) [US20250313563, Compound 913357] |
| < 100 nM | 100 to 1000 nM | CCC1(c2cccc(Br)c2)C2=CN=NC2NC2=C1C(=O)NC(C)(C)C2 (stereo not drawn) [US20250313563, Compound 913439] |
| 100 to 1000 nM | 100 to 1000 nM | O=C1CC2(CSC2)CC2=C1C1(CCCC1)C1=CN=NC1N2 (stereo not drawn) [US20250313563, Compound 913441] |
| 100 to 1000 nM | 100 to 1000 nM | CC1(C)CC(=O)C2=C(C1)NC1=C(CN=N1)[C@@]21CO[C@@H](C2CC2)C1 [US20250313563, Compound 913442] |
| < 100 nM | 100 to 1000 nM | CC[C@]1(c2cccc(C(F)(F)F)c2)C2=C(N=NC2)NC2=C1C(=O)NC2(C)C [US20250313563, Compound 913451] |
| > 5000 nM | > 5000 nM | CC[C@@]1(c2cccc(C(F)(F)F)c2)C2=C(N=NC2)NC2=C1C(=O)NC2(C)C [US20250313563, Compound 913452] |
| < 100 nM and 100 to 1000 nM | < 100 nM and 1000 to 5000 nM | CC[C@]1(c2cccc(C(F)(F)F)c2)C2=CN=NC2NC2=C1C(=O)NC1(CCC1)C2 (stereo partly drawn) [US20250313563, Compound 914308] |
| 100 to 1000 nM | > 5000 nM | CC[C@@]1(c2cccc(C(F)(F)F)c2)C2=CN=NC2NC2=C1C(=O)NC1(CCC1)C2 (stereo partly drawn) [US20250313563, Compound 914344] |
| < 100 nM | 1000 to 5000 nM | CCC1(c2cccc(-c3ccnc(C)c3)c2)C2=CN=NC2NC2=C1C(=O)NC(C)(C)C2 (stereo not drawn) [US20250313563, Compound 914930] |
| < 100 nM | 100 to 1000 nM | CCC1(c2cccc(-c3ccnn3C)c2)C2=CN=NC2NC2=C1C(=O)NC(C)(C)C2 (stereo not drawn) [US20250313563, Compound 914971] |
| < 100 nM | < 100 nM | CC[C@]1(c2cccc(N(C)c3cnccn3)c2)C2=CN=NC2NC2=C1C(=O)CC(C)(C)C2 (stereo partly drawn) [US20250313563, Compound 915316] |
| 100 to 1000 nM | 1000 to 5000 nM | CC[C@@]1(c2cccc(N(C)c3cnccn3)c2)C2=CN=NC2NC2=C1C(=O)CC(C)(C)C2 (stereo partly drawn) [US20250313563, Compound 915340] |
| < 100 nM | < 100 nM | CC[C@]1(c2cccc(N(C)c3cncnc3)c2)C2=CN=NC2NC2=C1C(=O)CC(C)(C)C2 (stereo partly drawn) [US20250313563, Compound 915400] |
| 100 to 1000 nM | 1000 to 5000 nM | CC[C@@]1(c2cccc(N(C)c3cncnc3)c2)C2=CN=NC2NC2=C1C(=O)NC(C)(C)C2 (stereo partly drawn) [US20250313563, Compound 915401] |
| 100 to 1000 nM | 1000 to 5000 nM | CC[C@@]1(c2cccc(N(C)c3ccnnc3)c2)C2=CN=NC2NC2=C1C(=O)CC(C)(C)C2 (stereo partly drawn) [US20250313563, Compound 915630] |
| 100 to 1000 nM | 1000 to 5000 nM | CC[C@@]1(c2cccc(N3CCCc4ncccc43)c2)C2=CN=NC2NC2=C1C(=O)CC(C)(C)C2 (stereo partly drawn) [US20250313563, Compound 917079] |
| < 100 nM | < 100 nM | CC1(C)CC(=O)C2=C(C1)NC1=C(CN=N1)C21CC(c2ccccc2)C1 (stereo not drawn) [US20250313563, Compound 917081] |
| < 100 nM and 100 to 1000 nM | < 100 nM and 1000 to 5000 nM | CC[C@]1(c2cccc(N(c3cccnc3)C(C)C)c2)C2=CN=NC2NC2=C1C(=O)CC(C)(C)C2 (stereo partly drawn) [US20250313563, Compound 917086] |
| 100 to 1000 nM | 1000 to 5000 nM | CC[C@@]1(c2cccc(N(c3cccnc3)C(C)C)c2)C2=CN=NC2NC2=C1C(=O)CC(C)(C)C2 (stereo partly drawn) [US20250313563, Compound 917087] |
| 100 to 1000 nM | 1000 to 5000 nM | CCN(c1cccnc1)c1cccc([C@@]2(CC)C3=CN=NC3NC3=C2C(=O)CC(C)(C)C3)c1 (stereo partly drawn) [US20250313563, Compound 917088] |
| 100 to 1000 nM | 1000 to 5000 nM | CCN(c1cccnc1)c1cccc([C@]2(CC)C3=CN=NC3NC3=C2C(=O)CC(C)(C)C3)c1 (stereo partly drawn) [US20250313563, Compound 917089] |
| 100 to 1000 nM | 100 to 1000 nM | CC1(C)CC(=O)C2=C(C1)NC1=C(CN=N1)[C@]21COC2(CCC2)C1 [US20250313563, Compound 917128] |
| 100 to 1000 nM | 100 to 1000 nM | CC1(C)CC(=O)C2=C(C1)NC1=C(CN=N1)[C@@]21COC2(CCC2)C1 [US20250313563, Compound 917129] |
| < 100 nM | 100 to 1000 nM | CCC1(c2cccc(N(C)C(=O)c3ccn(C)n3)c2)C2=CN=NC2NC2=C1C(=O)CC(C)(C)C2 (stereo not drawn) [US20250313563, Compound 917130] |
